Data published in PubChem BioAssay (NCI).
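Briefly, cells in 96-well plates were exposed to five compound concentrations for 48 h, and endpoints were estimated by linear interpolation. TGI: total growth inhibition.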

How the values were obtained:
Experiment in all cases: growth of human tumour cells (NCI), 48 h
MALME-3M melanoma = test system: MALME-3M melanoma
NCI-H522 lung = test system: NCI-H522 lung
MDA-N = test system: MDA-N
786-0 renal = test system: 786-0 renal
OVCAR-4 ovarian = test system: OVCAR-4 ovarian
OVCAR-8 ovarian = test system: OVCAR-8 ovarian
KM12 colon = test system: KM12 colon
NCI-H23 lung = test system: NCI-H23 lung
K-562 leukemia = test system: K-562 leukemia
MDA-MB-435 = test system: MDA-MB-435
OVCAR-5 ovarian = test system: OVCAR-5 ovarian
A549 NSCLC = test system: A549 NSCLC
SNB-75 CNS = test system: SNB-75 CNS
HOP-92 NSCLC = test system: HOP-92 NSCLC
SW-620 colon = test system: SW-620 colon
HOP-62 NSCLC = test system: HOP-62 NSCLC
PC-3 prostate = test system: PC-3 prostate

Row | SMILES | TGI (MALME-3M melanoma) [µM] | TGI (NCI-H522 lung) [µM] | TGI (MDA-N) [µM] | TGI (786-0 renal) [µM] | TGI (OVCAR-4 ovarian) [µM] | TGI (OVCAR-8 ovarian) [µM] | TGI (KM12 colon) [µM] | TGI (NCI-H23 lung) [µM] | TGI (K-562 leukemia) [µM] | TGI (MDA-MB-435) [µM] | TGI (OVCAR-5 ovarian) [µM] | TGI (A549 NSCLC) [µM] | TGI (SNB-75 CNS) [µM] | TGI (HOP-92 NSCLC) [µM] | TGI (SW-620 colon) [µM] | TGI (HOP-62 NSCLC) [µM] | TGI (PC-3 prostate) [µM]
1 | C#C[C@]1(O)CC[C@H]2[C@@H]3CCC4=C/C(=N/OCCN(C)C)CC[C@]4(C)[C@H]3CC[C@@]21C | 60.6 | 62.6 | 35.1 | > 100 | > 100 | > 100 | > 100 | > 100 | > 100 | 32.2 | > 100 | > 100 | > 100 | > 100 | > 100 | > 100 | > 100
2 | CCCCCCCCCCCCCCCCCc1cccc(OCOCCOC)c1C(=O)O | 22.2 | 30 | 38.8 | 35.2 | 34.8 | 31.7 | 34.1 | 30.1 | > 83 | 40.9 | 35 | 42.1 | 31.1 | 35.8 | 44.3 | 38.9 | 34.4
3 | CC(=O)Nc1ccc(NCC(=O)Nn2cnc3ccc(S(=O)(=O)Nc4ccc(NC(C)=O)cc4)cc3c2=O)cc1 | > 100 | > 100 | > 100 | > 100 | > 100 | > 100 | > 100 | > 100 | > 100 | > 100 | > 100 | > 100 | > 100 | > 100 | > 100 | > 100 | > 100
4 | CC(C)(O)/C=C\P(=O)(O)O | > 100 | > 100 | > 100 | > 100 | > 100 | > 100 | > 100 | > 100 | > 100 | > 100 | > 100 | > 100 | > 100 | > 100 | > 100 | > 100 | > 100
5 | O=C1NC(=O)C(F)(n2cc(F)c(=O)[nH]c2=O)C(O)N1 (configuration not stated) | > 10 | > 10 | > 10 | > 10 | > 10 | > 10 | > 10 | > 10 | > 10 | > 10 | > 10 | > 10 | > 10 | > 10 | > 10 | > 10 | > 10
6 | O=P12N(CCN1c1ccccc1)CCN2c1ccccc1 | > 100 | > 100 | > 100 | > 100 | > 100 | > 100 | > 100 | > 100 | > 100 | > 100 | > 100 | > 100 | > 100 | > 100 | > 100 | > 100 | > 100
7 | NC1=CN(CCCO)C2=N/C(=C\c3ccccc3)C(=O)N12 | > 100 | > 100 | > 100 | > 100 | > 100 | > 100 | > 100 | > 100 | > 100 | > 100 | > 100 | > 100 | > 100 | > 100 | > 100 | > 100 | > 100
8 | Cc1ccccc1N=Nc1c(O)c(S(=O)(=O)O)cc2cc(S(=O)(=O)O)ccc12 | > 100 | > 100 | > 100 | > 100 | > 100 | > 100 | > 100 | > 100 | > 100 | > 100 | > 100 | > 100 | > 100 | > 100 | > 100 | > 100 | > 100
9 | COC(=O)/C=C1\C(=O)N(C(C)=O)c2ccc(Br)cc21 | 35.3 | 13.3 | 24 | 18 | 25.9 | 24 | 28.6 | 32.4 | 44.9 | 22 | 32.4 | 36 | 21.8 | 29.5 | 25.9 | 25.9 | 20.9
10 | CCOC(=O)c1nc2ccc(C(F)(F)F)cc2nc1NCc1ccc(OC)cc1 | > 100 | > 100 | > 100 | > 100 | > 100 | > 100 | > 100 | > 100 | > 100 | > 100 | > 100 | > 100 | > 100 | > 100 | > 100 | > 100 | > 100
11 | Cc1cn([C@@H]2C[C@@H]2CO)c(=O)[nH]c1=O | > 100 | > 100 | > 100 | > 100 | > 100 | > 100 | > 100 | > 100 | > 100 | > 100 | > 100 | > 100 | > 100 | > 100 | > 100 | > 100 | > 100
12 | Cc1c(N2C(=O)/C(=C/c3ccc(Cl)cc3)N=C2c2ccccc2)c(=O)n(-c2ccccc2)n1C | > 100 | 44.8 | 71.6 | > 100 | > 100 | > 100 | > 100 | 78.2 | > 100 | 43.8 | > 100 | 99.4 | 80.3 | 66.6 | > 100 | > 100 | > 100
13 | O=c1[nH]c2nnc(COc3ccc(Cl)cc3Cl)n2nc1Cc1ccccc1 | > 100 | > 100 | > 100 | 43.8 | > 100 | 53.9 | > 100 | > 100 | > 100 | > 100 | > 100 | > 100 | 38.8 | 69.5 | > 100 | > 100 | > 100
14 | O=c1cc(N=Nc2ccc(Br)cc2)[nH]c(=S)[nH]1 | 30.8 | 38 | > 100 | 17.1 | 34.3 | 51.3 | > 100 | > 100 | 54.4 | 38.1 | > 100 | > 100 | > 100 | 50.5 | 64.5 | > 100 | > 100
15 | Cc1ccn2c(=O)cc(CN3CCOCC3)nc2c1 | > 100 | > 100 | > 100 | > 100 | > 100 | > 100 | > 100 | > 100 | > 100 | > 100 | > 100 | > 100 | > 100 | > 100 | > 100 | > 100 | > 100
16 | O=C(NC1(c2cc3ccccc3s2)CCCCC1)C1CCC1 | > 100 | > 100 | > 100 | > 100 | > 100 | > 100 | > 100 | > 100 | > 100 | > 100 | > 100 | > 100 | > 100 | > 100 | > 100 | > 100 | > 100
17 | COc1c(CC=C(C)C)c(O)c(C(CC(C)C)c2c(O)c3c(c(C(C)=O)c2O)OC(C(C)(C)O)C3)c(O)c1C(C)=O (configuration not stated) | > 12.5 | > 12.5 | > 12.5 | > 12.5 | > 12.5 | > 12.5 | > 12.5 | 8.9 | 9.11 | > 12.5 | > 12.5 | > 12.5 | > 12.5 | 6.43 | > 12.5 | > 12.5 | 10
18 | CN(C)CCCN1C(=S)N(CCCN(C)C)c2c3ccccc3nc3c([N+](=O)[O-])ccc1c23 | 6.69 | 10.5 | 21.4 | 18.2 | 27.9 | 22.5 | 16.1 | 23.7 | > 37.6 | 23.7 | 39.5 | > 42.2 | 23.1 | 19.5 | 17.4 | 47 | > 42.4
19 | CCOc1cc(C2SCC(=O)N2c2ccc(Oc3ccc(Cl)cc3)c(Cl)c2)ccc1O (configuration not stated) | 32.4 | 28.1 | 41.9 | 45.8 | 31.1 | 38.2 | 31.8 | 32.3 | > 100 | 42 | 53.3 | 39.7 | 37.3 | 33.7 | 37.7 | 40.8 | 33.4
20 | CC(ON(C(c1ccccc1)C(C)C)C(C)(C)C)c1ccccc1 (configuration not stated) | 71.6 | 44.4 | 81.3 | 30.7 | > 100 | 51.7 | 41.8 | 63.9 | 49.8 | 68.9 | 29.8 | 84.9 | 42.9 | 40.3 | 31.6 | 38.9 | 94
21 | CC(C)OC(=O)c1ccc(CCC2=CC(=O)C=CC2=O)cc1 | 15.9 | 4.02 | 22.6 | 15.6 | 29.6 | 18.1 | 27 | 31.3 | > 37.1 | 39.8 | 29.4 | > 79.7 | 62.5 | 13.9 | 19.1 | 47.4 | 26.1
